# Like-named read-outs stand apart in the source and are kept apart here.
# Conditions: no humidity
# Description: The samples were prepared in a brown glass bottle with the outer packing being an aluminum foil bag, and the samples were stored between layers of dessicant silica gels. The appearance, residual material, purity, TGA, and DSC were analyzed each month.
structure (smiles),measurement,setting,value
CNC[C@H](O)c1ccc(O)c(O)c1 [epinephrine malonate],Appearance,"30° C., month 0",Off-white
same,DSC Offset,"30° C., month 0",Offset: 104.25 °C
same,DSC Onset,"30° C., month 0",Onset: 98.8 °C
same,Purity,"30° C., month 0",99.96%
same,TGA,"30° C., month 0",0.32%
same,Appearance,"30° C., month 1",Off-white
same,DSC Offset,"30° C., month 1",Offset: 103.99 °C
same,DSC Onset,"30° C., month 1",Onset: 98.80 °C
same,Purity,"30° C., month 1",99.96%
same,Residual Material (%),"30° C., month 1",100.31%
same,TGA,"30° C., month 1",0.60%
same,Appearance,"30° C., month 2",Off-white
same,DSC Offset,"30° C., month 2",Offset: 104.47 °C
same,DSC Onset,"30° C., month 2",Onset: 99.27 °C
same,Purity,"30° C., month 2",99.96%
same,Residual Material (%),"30° C., month 2",99.42%
same,TGA,"30° C., month 2",0.19%
same,Appearance,"30° C., month 3",Off-white
same,DSC Offset,"30° C., month 3",Offset: 104.23 °C
same,DSC Onset,"30° C., month 3",Onset: 98.72 °C
same,Purity,"30° C., month 3",99.96%
same,Residual Material (%),"30° C., month 3",99.44%
same,TGA,"30° C., month 3",0.90%
same,Appearance,"30° C., month 4",Off-white
same,DSC Offset,"30° C., month 4",Offset: 103.62 °C
same,DSC Onset,"30° C., month 4",Onset: 99.12 °C
same,Purity,"30° C., month 4",99.73%
same,Residual Material (%),"30° C., month 4",99.31%
same,TGA,"30° C., month 4",0.69%
same,Appearance,"30° C., month 5",Off-white
same,DSC Offset,"30° C., month 5",Offset: 103.92 °C
same,DSC Onset,"30° C., month 5",Onset: 98.71 °C
same,Purity,"30° C., month 5",99.96%
same,Residual Material (%),"30° C., month 5",100.22%
same,TGA,"30° C., month 5",0.51%
same,Appearance,"40° C., month 0",Off-white
same,DSC Offset,"40° C., month 0",Offset: 104.25 °C
same,DSC Onset,"40° C., month 0",Onset: 98.8 °C
same,Purity,"40° C., month 0",99.96%
same,TGA,"40° C., month 0",0.32%
same,Appearance,"40° C., month 1",Off-white
same,DSC Offset,"40° C., month 1",Offset: 104.41 °C
same,DSC Onset,"40° C., month 1",Onset: 98.89 °C
same,Purity,"40° C., month 1",99.97%
same,Residual Material (%),"40° C., month 1",99.59%
same,TGA,"40° C., month 1",0.16%
same,Appearance,"40° C., month 2",Off-white
same,DSC Offset,"40° C., month 2",Offset: 104.05 °C
same,DSC Onset,"40° C., month 2",Onset: 98.78 °C
same,Purity,"40° C., month 2",99.96%
same,Residual Material (%),"40° C., month 2",100.11%
same,TGA,"40° C., month 2",0.13%
same,Appearance,"40° C., month 3",Off-white
same,DSC Offset,"40° C., month 3",Offset: 103.33 °C
same,DSC Onset,"40° C., month 3",Onset: 98.69 °C
same,Purity,"40° C., month 3",99.96%
same,Residual Material (%),"40° C., month 3",98.97%
same,TGA,"40° C., month 3",0.51%
same,Appearance,"40° C., month 5",Off-white
same,DSC Offset,"40° C., month 5",Offset: 103.83 °C
same,DSC Onset,"40° C., month 5",Onset: 98.49 °C
same,Purity,"40° C., month 5",99.96%
same,Residual Material (%),"40° C., month 5",99.68%
same,TGA,"40° C., month 5",0.46%

# — patent US11505521B2 (Biothea Pharma, Inc., priority 2018, dated 2022)
